This note sets out measurements from patent publication US20240018153A1, “BENZENESULFONAMIDE DERIVATIVES AND USES THEREOF” (2692372 ONTARIO, INC., priority 2020, published 2024).

One assay concerns β-Tubulin. Briefly: K562 cell lysis and immunoassay, β-tubulin degradation. The assay is classed as cell-based. Details: key: Y: β-tubulin bound in cells and tubulin degradation occurred. Conditions: K562 cells. The procedure: K562 cells (ATCC) were cultured in Iscove's Modified Dulbecco's Medium (IMDM) (Wisent) supplemented with 10% FBS and 1% penicillin/streptomycin. Cells were seeded in 6-well plates at 1.71×10^6 cells/well and incubated at 37° C., 5% CO2 for 16 hours. Cells were treated with compounds at the indicated concentrations or DMSO alone and incubated at 37° C., 5% CO2 for 24 hours. Cell suspensions were centrifugated at 1,400 RPM for 5 minutes at room temperature and supernatants were discarded. Cell pellets were resuspended with 1× RIPA buffer (Millipore) and incubated on ice for 15 minutes. Protein lysates were extracted by centrifugating at 20,000 RPM for 20 minutes at 4° C. Proteins were separated and total β-Tubulin levels were quantified by Simple Western Immunoassay (ProteinSimple) using the Protein Normalization Assay Module for Jess (ProteinSimple) according to the manufacturer's protocol, using a protein concentration of 0.05 μg/μl and an antibody targeting β-Tubulin (Abcam) diluted to 1:800. β-Tubulin levels were quantified relative to the Protein Normalization Reagent and subsequently normalized to the DMSO control.

The next assay concerns the target BTK (Homo sapiens (Human), UniProt Q06187). Briefly: HTRF KinEASE-TK kinase assay, BTK. Conditions: 3 h preincubation; for remaining activity at 1 µM: 1 μM compound, read-out: % BTK Remaining activity vs DMSO (1 μM, 3 h); for remaining activity at 10 µM: 10 μM compound, read-out: % BTK Remaining activity vs DMSO (10 μM, 3 h). It counts as biochemical. In short, it runs like this: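 BTK activity in HTRF KinEASE-TK format, buffer containing 10 mM MnCl2, 5 mM MgCl2, 1 uM ATPγS and 1 mM TCEP; 45 min reaction with biotinylated substrate and ATP.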
On the technique in general: In TR-FRET formats the signal depends on donor and acceptor labels being close together.

Another assay addresses BMX (Homo sapiens (Human), UniProt P51813). Kind of assay: HTRF KinEASE-TK kinase assay, BMX. The assay is classed as biochemical. The settings on record: for remaining activity at 1 µM: 1 uM compound; for remaining activity at 1 µM / remaining activity at 10 µM: 3 h preincubation; for remaining activity at 10 µM: 10 uM compound. In short, it runs like this: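 Purchased BMX (0.333 ng/ul, 3.03 nM) was preincubated with or without inhibitor for 3 h at room temperature, then biotinylated substrate and ATP were added. Reactions were stopped with EDTA-containing buffer holding 31.25 nM SA-XL665 and Eu-antibody, and after 60 min phosphorylation was read as the HTRF 665/620 nm emission ratio.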

The next assay deals with EGFR (Homo sapiens (Human), UniProt P00533). Briefly: HTRF KinEASE-TK kinase assay, EGFR. The assay is classed as biochemical. Conditions: 3 h preincubation; for remaining activity at 1 µM: 1 μM compound, read-out: % EGFR Remaining activity vs DMSO (1 μM, 3 h); for remaining activity at 10 µM: 10 μM compound, read-out: % EGFR Remaining activity vs DMSO (10 μM, 3 h). In short, it runs like this:
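HTRF KinEASE-TK format: EGFR pre-incubated with compound at 1 and 10 uM final (0.5% DMSO) in kinase buffer with 2 mM MnCl2, 5 mM MgCl2 and 1 mM TCEP.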

For the next assay, the target named is FGFR4 (Homo sapiens (Human), UniProt P22455). Briefly: HTRF KinEASE-TK kinase assay, FGFR4. It counts as biochemical. The settings on record: for remaining activity at 1 µM: read-out: % FGFR4 Remaining activity vs DMSO (1 μM, 3 h); for remaining activity at 10 µM: read-out: % FGFR4 Remaining activity vs DMSO (10 μM, 3 h). In short, it runs like this:
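Promega FGFR4 at 0.333 ng/ul (5.12 nM) preincubated with or without inhibitor for 3 h at room temperature, then reaction started with biotinylated substrate and ATP. Stopped with EDTA detection buffer containing 31.25 nM SA-XL665 and Eu-antibody; after 60 min, HTRF 665/620 nm ratio read as substrate phosphorylation.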

For the next assay, the target named is JAK3 (Homo sapiens (Human), UniProt P52333). Kind of assay: HTRF KinEASE-TK kinase assay, JAK3. The assay is classed as biochemical. The settings on record: for remaining activity at 1 µM: read-out: % JAK3 Remaining activity vs DMSO (1 μM, 3 h); for remaining activity at 10 µM: read-out: % JAK3 Remaining activity vs DMSO (10 μM, 3 h). In short, it runs like this:
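Promega JAK3 at 0.21 nM was preincubated with inhibitor for 3 h at room temperature before biotinylated substrate and ATP were added. The reaction was stopped with EDTA detection buffer containing 31.25 nM SA-XL665 and Eu-antibody. After 60 min, the HTRF 665/620 nm emission ratio reflected substrate phosphorylation.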

For assay [1], the target named is His-tagged BTK protein (SEQ ID NO: 1) (Homo sapiens (Human), UniProt Q06187). Briefly: Intact mass analysis (LC-MS/MS) of covalent modification. The assay is classed as binding. Conditions: His-tagged BTK (unmodified 32,650 Da) incubated with compound. The procedure: The covalent modification of the proteins with the compounds were evaluated using intact mass analysis by liquid chromatography-mass spectrometry instrument (LC-MS/MS).
His-tagged BTK protein (SEQ ID NO: 1), sequence (Q06187 other isoform, or with tags, fused parts or gaps): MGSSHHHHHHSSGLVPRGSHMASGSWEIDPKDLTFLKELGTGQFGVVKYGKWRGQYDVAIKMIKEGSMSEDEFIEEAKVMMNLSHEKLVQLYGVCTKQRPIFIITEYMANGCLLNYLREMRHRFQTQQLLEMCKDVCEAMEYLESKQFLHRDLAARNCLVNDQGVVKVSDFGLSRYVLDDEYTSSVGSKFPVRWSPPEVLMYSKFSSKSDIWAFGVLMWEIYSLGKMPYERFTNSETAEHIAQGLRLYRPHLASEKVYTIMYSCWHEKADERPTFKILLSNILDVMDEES
The reaction solution (20 μL) was prepared in 96-well plate and contained the protein (2 μM), the compound (100 μM), HEPES buffer (20 mM, pH 8), 2% DMSO, 2% glycerol, and 150 mM NaCl. The reaction was allowed to proceed for 24 h at 25° C. The reaction solution (1 μL) was injected into the LC/MS/MS without any further sample preparation.
The LC-MS/MS instrument comprises of a Waters G2-XS quadrupole-time of flight (QTof) mass spectrometer and a Waters Acuity I-class Ultra-High Performance Liquid Chromatography (UPLC) system. The I-class UPLC system includes a binary solvent manager (BSM), and a Acquity sample manager (SM). The mobile phase consisted of: A) 0.1% (v/v) formic acid in MilliQ water; B) 0.1% (v/v) formic acid acetonitrile. Gradients were run over 5 min and proceeded as follows: A:B, 85:15, 0.0-0.7 min, 85:15→15:85, 0.7-1.5 min, 10:90, 1.5-4 min, 10:90→85:15, 4-4.5 min, 85:15, 4.5-5 min. The analytical column was a Waters BEH C4 column 1.7 μm (50×1 mm) column with pore sizes of […]. The TOF MS data was collected in positive ion mode (m/z of 400-2000 Da) using MassLynx software (Waters).
The spectral deconvolution was performed using UNIFI software (Waters). The added mass of the protein upon covalent modification to cysteine residues were specified. Multiple modification of up to 8 cysteine was allowed. All the adducts with signal intensities of <2% of the base peak were ignored. The % modification was calculated as the adduct signal intensity over the total intensities of the protein peaks and the adducts.

Molecules are shown by their SMILES. Where only a bound is given, the exact number is not on record here.

EGFR, sequence (P00533 25-1210): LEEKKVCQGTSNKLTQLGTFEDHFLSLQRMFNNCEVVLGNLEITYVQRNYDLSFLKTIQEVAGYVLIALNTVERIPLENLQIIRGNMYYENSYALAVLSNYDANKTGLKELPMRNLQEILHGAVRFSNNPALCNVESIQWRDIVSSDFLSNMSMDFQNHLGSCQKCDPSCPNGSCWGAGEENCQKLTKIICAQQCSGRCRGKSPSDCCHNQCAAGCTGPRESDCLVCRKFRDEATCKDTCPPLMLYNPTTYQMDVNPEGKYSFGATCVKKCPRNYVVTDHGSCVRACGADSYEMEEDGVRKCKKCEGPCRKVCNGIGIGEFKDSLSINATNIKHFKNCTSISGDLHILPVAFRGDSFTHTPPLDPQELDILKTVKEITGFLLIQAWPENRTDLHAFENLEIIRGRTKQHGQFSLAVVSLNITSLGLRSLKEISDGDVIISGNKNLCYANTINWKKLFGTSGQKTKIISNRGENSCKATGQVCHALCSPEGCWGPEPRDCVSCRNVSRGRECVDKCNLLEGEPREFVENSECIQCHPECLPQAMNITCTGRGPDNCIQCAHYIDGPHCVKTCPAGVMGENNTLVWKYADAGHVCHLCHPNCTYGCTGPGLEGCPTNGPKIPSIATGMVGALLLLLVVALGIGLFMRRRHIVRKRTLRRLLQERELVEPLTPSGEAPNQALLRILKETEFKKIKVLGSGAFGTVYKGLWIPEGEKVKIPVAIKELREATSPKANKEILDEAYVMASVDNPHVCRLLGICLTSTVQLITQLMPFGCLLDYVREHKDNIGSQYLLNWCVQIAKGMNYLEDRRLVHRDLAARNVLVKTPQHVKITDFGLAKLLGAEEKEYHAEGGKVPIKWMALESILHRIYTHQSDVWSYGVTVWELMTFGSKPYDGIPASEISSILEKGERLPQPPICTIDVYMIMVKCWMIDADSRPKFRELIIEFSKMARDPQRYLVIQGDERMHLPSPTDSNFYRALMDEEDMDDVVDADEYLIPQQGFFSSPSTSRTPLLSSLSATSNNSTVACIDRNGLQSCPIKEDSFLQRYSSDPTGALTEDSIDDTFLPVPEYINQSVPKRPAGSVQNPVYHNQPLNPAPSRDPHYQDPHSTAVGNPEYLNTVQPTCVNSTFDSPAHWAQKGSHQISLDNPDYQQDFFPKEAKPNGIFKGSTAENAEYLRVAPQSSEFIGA
BTK, sequence (Q06187 whole entry): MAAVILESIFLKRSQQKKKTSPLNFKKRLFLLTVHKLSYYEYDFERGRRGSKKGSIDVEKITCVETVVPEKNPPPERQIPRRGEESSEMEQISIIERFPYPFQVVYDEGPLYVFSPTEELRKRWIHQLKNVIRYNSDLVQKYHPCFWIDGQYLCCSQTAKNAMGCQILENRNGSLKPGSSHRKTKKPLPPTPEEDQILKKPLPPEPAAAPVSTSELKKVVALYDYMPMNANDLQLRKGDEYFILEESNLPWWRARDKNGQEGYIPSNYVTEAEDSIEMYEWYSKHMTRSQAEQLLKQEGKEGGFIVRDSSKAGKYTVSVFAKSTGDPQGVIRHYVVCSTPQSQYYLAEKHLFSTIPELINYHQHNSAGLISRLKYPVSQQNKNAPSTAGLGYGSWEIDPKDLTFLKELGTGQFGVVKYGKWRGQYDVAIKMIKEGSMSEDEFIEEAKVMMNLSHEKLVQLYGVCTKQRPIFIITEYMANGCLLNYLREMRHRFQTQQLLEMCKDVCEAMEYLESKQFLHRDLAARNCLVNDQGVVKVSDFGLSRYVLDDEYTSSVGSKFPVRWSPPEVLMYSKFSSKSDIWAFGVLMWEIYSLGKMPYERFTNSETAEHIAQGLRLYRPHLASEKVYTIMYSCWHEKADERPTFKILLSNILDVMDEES
BMX, sequence (P51813 whole entry): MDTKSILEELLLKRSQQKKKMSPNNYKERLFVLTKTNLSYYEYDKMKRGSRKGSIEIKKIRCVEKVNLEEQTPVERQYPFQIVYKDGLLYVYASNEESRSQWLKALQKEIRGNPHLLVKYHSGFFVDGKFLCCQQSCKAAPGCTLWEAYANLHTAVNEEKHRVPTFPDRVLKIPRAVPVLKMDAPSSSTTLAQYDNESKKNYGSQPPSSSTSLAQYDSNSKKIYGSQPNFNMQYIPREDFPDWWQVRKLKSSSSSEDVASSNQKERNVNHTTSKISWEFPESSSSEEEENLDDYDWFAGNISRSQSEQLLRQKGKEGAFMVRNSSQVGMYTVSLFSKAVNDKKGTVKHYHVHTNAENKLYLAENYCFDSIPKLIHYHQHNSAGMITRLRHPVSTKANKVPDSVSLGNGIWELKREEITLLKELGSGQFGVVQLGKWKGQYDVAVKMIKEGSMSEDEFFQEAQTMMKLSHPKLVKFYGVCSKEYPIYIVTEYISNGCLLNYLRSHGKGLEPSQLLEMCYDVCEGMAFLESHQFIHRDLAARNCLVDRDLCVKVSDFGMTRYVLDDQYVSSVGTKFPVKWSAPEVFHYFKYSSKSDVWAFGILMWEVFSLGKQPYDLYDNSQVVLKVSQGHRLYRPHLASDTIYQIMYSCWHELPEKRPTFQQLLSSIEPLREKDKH
JAK3, sequence (P52333 781-1124): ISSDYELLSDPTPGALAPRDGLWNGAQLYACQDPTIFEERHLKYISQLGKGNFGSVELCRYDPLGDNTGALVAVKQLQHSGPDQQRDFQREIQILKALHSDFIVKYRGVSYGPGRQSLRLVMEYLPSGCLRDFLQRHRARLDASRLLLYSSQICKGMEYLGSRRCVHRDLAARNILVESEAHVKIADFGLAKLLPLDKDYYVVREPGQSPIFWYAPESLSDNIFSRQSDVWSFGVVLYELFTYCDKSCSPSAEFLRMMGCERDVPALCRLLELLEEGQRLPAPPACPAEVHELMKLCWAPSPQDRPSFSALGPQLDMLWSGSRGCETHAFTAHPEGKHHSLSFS
FGFR4, sequence (P22455 22-802): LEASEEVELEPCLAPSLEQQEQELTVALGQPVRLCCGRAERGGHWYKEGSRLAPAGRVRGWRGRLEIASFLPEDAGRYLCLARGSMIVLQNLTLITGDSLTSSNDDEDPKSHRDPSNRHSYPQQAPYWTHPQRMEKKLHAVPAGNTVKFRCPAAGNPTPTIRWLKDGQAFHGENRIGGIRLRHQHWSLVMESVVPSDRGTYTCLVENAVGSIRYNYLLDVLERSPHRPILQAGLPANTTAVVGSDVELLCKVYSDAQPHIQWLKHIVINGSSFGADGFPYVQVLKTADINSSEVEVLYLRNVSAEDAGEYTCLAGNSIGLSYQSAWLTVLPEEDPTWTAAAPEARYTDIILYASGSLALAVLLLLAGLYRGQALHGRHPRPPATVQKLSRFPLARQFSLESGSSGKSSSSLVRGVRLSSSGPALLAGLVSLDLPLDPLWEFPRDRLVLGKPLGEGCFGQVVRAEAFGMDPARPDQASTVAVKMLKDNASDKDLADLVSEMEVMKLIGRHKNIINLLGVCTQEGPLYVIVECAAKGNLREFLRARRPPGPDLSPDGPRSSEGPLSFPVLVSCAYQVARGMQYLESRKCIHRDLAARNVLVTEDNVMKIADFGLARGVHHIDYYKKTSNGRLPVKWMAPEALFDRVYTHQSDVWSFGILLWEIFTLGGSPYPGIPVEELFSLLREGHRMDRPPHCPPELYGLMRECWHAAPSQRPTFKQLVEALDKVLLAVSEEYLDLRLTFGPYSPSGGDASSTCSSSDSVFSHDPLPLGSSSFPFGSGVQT

In the case of `COc1ccc(N(C)S(=O)(=O)c2c(F)c(F)c(F)c(F)c2C(F)(F)F)cc1F` [Compound I-7, 2,3,4,5-tetrafluoro-N-(3-fluoro-4-methoxyphenyl)-N-methyl-6-(trifluoromethyl) benzenesulfonamide], in the assay with β-Tubulin (1 μM), the “Beta-tubulin - K562 24 hrs (1 μM)” value was “Y”. Further, in the assay with β-Tubulin (compound concentration 0.5), the “Beta-tubulin K562, compound concentration, 24 hrs” value (“Beta-tubulin K562” below) is listed as “Y”.
On to `COc1ccc(NC(=O)c2c(F)c(F)c(F)c(F)c2S(=O)(=O)N(C)C)cc1F` [Compound I-9, 2-(N,N-dimethylsulfamoyl)-3,4,5,6-tetrafluoro-N-(3-fluoro-4-methoxyphenyl) benzamide], for which the “Beta-tubulin K562” value in the assay with β-Tubulin (compound concentration 10) is reported as “Y”.
In the case of `COc1ccc(/N=C/c2c(F)c(F)c(F)c(F)c2S(C)(=O)=O)cc1F` [Compound I-11, (E)-N-(3-fluoro-4-methoxyphenyl)-1-(2,3,4,5-tetrafluoro-6-(methylsulfonyl)phenyl) methanimine], in the assay with β-Tubulin (compound concentration 0.5), the “Beta-tubulin K562” value was “Y”.
For `COc1ccc(CS(=O)(=O)c2c(F)c(F)c(F)c(F)c2OC(F)F)cc1F` [Compound I-15, 1-(difluoromethoxy)-2,3,4,5-tetrafluoro-6-((3-fluoro-4-methoxybenzyl)sulfonyl) benzene], the “Beta-tubulin K562” value in the assay with β-Tubulin (compound concentration 10) is listed as “Y”.
As for `COc1ccc(CS(=O)(=O)c2c(F)c(F)c(F)c(F)c2OCc2ccccc2)cc1F` [Compound I-16, 1-(benzyloxy)-2,3,4,5-tetrafluoro-6-((3-fluoro-4-methoxybenzyl)sulfonyl)benzene], the “Beta-tubulin K562” value with β-Tubulin (compound concentration 10) is reported as “Y”.
For the compound `COc1ccc(OCc2c(F)c(F)c(F)c(F)c2S(C)(=O)=O)cc1F` [Compound I-17, 1,2,3,4-tetrafluoro-5-((3-fluoro-4-methoxyphenoxy)methyl)-6-(methylsulfonyl) benzene], the “Beta-tubulin K562” value in the assay with β-Tubulin (compound concentration 5) is listed as “Y”.
By remaining activity is commonly meant the signal under treatment as a percentage of the control signal. What is called IC50 is the concentration that gives 50% inhibition. As to `COCCOc1ccc(Nc2ncc(F)c(NCCCNS(=O)(=O)c3c(F)c(F)c(F)c(F)c3OC(F)F)n2)cc1` [Compound I-55, 2-(difluoromethoxy)-3,4,5,6-tetrafluoro-N-(3-((5-fluoro-2-((4-(2-methoxyethoxy)phenyl)amino)pyrimidin-4-yl)amino)propyl)benzenesulfonamide], the remaining activity at 1 µM on BTK was below 50%; on BMX it was below 50%; at EGFR it was above 90%; on FGFR4, 50 to 90%; at JAK3 it was below 50%. The remaining activity at 10 µM was below 50% at BTK; below 50% on BMX; above 90% at EGFR; below 50% at FGFR4; below 50% on JAK3. Moreover, the half-inhibitory concentration (IC50) on JAK3 (dose response) was below 1000 nM. Also, the “covalent adduct mass (intact mass analysis, modification by one molecule)” value in assay [1] is 33,243 Da.
Turning to `COCCOc1ccc(Nc2ncc(F)c(NCCCNS(=O)(=O)c3c(F)c(F)c(F)c(F)c3CF)n2)cc1` [Compound I-56, 2,3,4,5-tetrafluoro-N-(3-((5-fluoro-2-((4-(2-methoxyethoxy)phenyl)amino)pyrimidin-4-yl)amino)propyl)-6-(fluoromethyl)benzenesulfonamide], the remaining activity at 1 µM on BTK is below 50%; at BMX it was below 50%; on EGFR, above 90%; on FGFR4, 50 to 90%; at JAK3, below 50%. Moreover, the remaining activity at 10 µM at BTK is below 50%; on BMX, below 50%; at EGFR, above 90%; at FGFR4, below 50%; at JAK3, below 50%. Besides, the half-inhibitory concentration (IC50) against BMX (dose response) was below 1000 nM. Moreover, the “covalent adduct mass (intact mass analysis, modification by one molecule)” value in assay [1] is listed as 33,209 Da.
